# Measurements as given in ChEMBL document CHEMBL1138828, “A bivalent ligand (KDN-21) reveals spinal delta and kappa opioid receptors are organized as heterodimers that give rise to delta(1) and kappa(2) phenotypes. Selective targeting of delta-kappa heterodimers” (J Med Chem, 2004).
# Tests used:
# Mus musculus [1] = experiment: Antagonism of delta1 opioid agonist (DPDPE)-induced antinociception upon intrathecal administration in mice at a dose of 25 pmol; type: functional
# Mus musculus [2] = experiment: Antagonism of kappa2 opioid agonist (bremazocine)-induced antinociception upon intrathecal administration in mice at a dose of 25 pmol; type: functional
# Mus musculus [3] = experiment: Antagonism of kappa1 opioid agonist (U-50,488)-induced antinociception upon intrathecal administration in mice at a dose of 25 pmol; type: functional
# Mus musculus [4] = experiment: Antagonism of delta2 opioid agonist (deltorphin II)-induced antinociception upon intrathecal administration in mice at a dose of 25 pmol; type: functional
# Mus musculus [5] = experiment: Antagonism of delta1 opioid agonist (DPDPE)-induced antinociception upon intrathecal administration in mice at a dose of 50 pmol; type: functional
# Mus musculus [6] = experiment: Antagonism of kappa2 opioid agonist (bremazocine)-induced antinociception upon intrathecal administration in mice at a dose of 50 pmol; type: functional
# Mus musculus [7] = experiment: Antagonism of kappa1 opioid agonist (U-50,488)-induced antinociception upon intrathecal administration in mice at a dose of 50 pmol; type: functional
# Mus musculus [8] = experiment: Antagonism of delta2 opioid agonist (deltorphin II)-induced antinociception upon intrathecal administration in mice at a dose of 50 pmol; type: functional
# Mus musculus [9] = experiment: Antagonism of delta1 opioid agonist (DPDPE)-induced antinociception upon intrathecal administration in mice at a dose of 2.5 pmol; type: functional
# Mus musculus [10] = experiment: Antagonism of kappa2 opioid agonist (bremazocine)-induced antinociception upon intrathecal administration in mice at a dose of 2.5 pmol; type: functional
# Opioid receptor [11] = molecular target: T1, Opioid receptor (Mus musculus, UniProt P42866+P32300+P33534); experiment: Compound was tested for binding affinity on intact HEK cells using [3H]diprenorphine as radioligand co-expressed with delta and kappa opioid receptors; type: cell-based; details: hek293
# Opioid receptor [12] = molecular target: T1, Opioid receptor; experiment: Compound was tested for binding affinity on intact HEK cells using [3H]diprenorphine as radioligand singly expressed with delta or kappa receptor; type: cell-based, Homo sapiens; details: hek293
# Mus musculus [13] = experiment: Antagonism of delta2 opioid agonist (deltorphin II)-induced antinociception upon intrathecal administration in mice at a dose of 2.5 pmol; type: functional
# Mus musculus [14] = experiment: Antagonism of kappa1 opioid agonist (U-50,488)-induced antinociception upon intrathecal administration in mice at a dose of 2.5 pmol; type: functional
# Mus musculus [15] = experiment: Antagonism of delta1 opioid agonist (DPDPE)-induced antinociception upon intrathecal administration in mice at a dose of 1.0 pmol; type: functional
# Mus musculus [16] = experiment: Antagonism of delta2 opioid agonist (deltorphin II)-induced antinociception upon intrathecal administration in mice at a dose of 1.0 pmol; type: functional
# Opioid receptor [17] = molecular target: T1, Opioid receptor; experiment: Compound was tested for binding affinity on intact HEK cells using [3H]diprenorphine as radioligand singly expressed with delta or kappa receptors.; type: cell-based; details: hek293
# Mus musculus [18] = experiment: Antagonism of kappa2 opioid agonist (bremazocine)-induced antinociception upon intrathecal administration in mice at a dose of 1.0 pmol; type: functional
# Mus musculus [19] = experiment: Antagonism of kappa2 opioid agonist (bremazocine)-induced antinociception upon intrathecal administration in mice at a dose of 250 pmol; type: functional
# Mus musculus [20] = experiment: Antagonism of delta2 opioid agonist (deltorphin II)-induced antinociception upon intrathecal administration in mice at a dose of 250 pmol; type: functional
# Mus musculus [21] = experiment: Antagonism of delta1 opioid agonist (DPDPE)-induced antinociception upon intrathecal administration in mice at a dose of 250 pmol; type: functional
# Mus musculus [22] = experiment: Antagonism of kappa1 opioid agonist (U-50,488)-induced antinociception upon intrathecal administration in mice at a dose of 250 pmol; type: functional
# Mus musculus [23] = experiment: Antagonism of kappa2 opioid agonist (bremazocine)-induced antinociception upon intrathecal administration in mice at a dose of 30 pmol; type: functional
# Mus musculus [24] = experiment: Antagonism of delta1 opioid agonist (DPDPE)-induced antinociception upon intrathecal administration in mice at a dose of 30 pmol; type: functional
# Mus musculus [25] = experiment: Antagonism of delta2 opioid agonist (deltorphin II)-induced antinociception upon intrathecal administration in mice at a dose of 30 pmol; type: functional
# Mus musculus [26] = experiment: Antagonism of kappa1 opioid agonist (U-50,488)-induced antinociception upon intrathecal administration in mice at a dose of 30 pmol; type: functional
# Opioid receptor [27] = molecular target: T1, Opioid receptor; experiment: Compound was tested for binding affinity on intact HEK cells using [3H]diprenorphine as radioligand co-expressed with delta and kappa opioid receptor; type: cell-based; details: hek293
structure (smiles),measurement,setting,value
O=C1/C(=C/c2ccccc2)C[C@@]2(O)[C@H]3Cc4ccc(O)c5c4[C@@]2(CCN3CC2CC2)[C@H]1O5 [BNTX],ED50,Mus musculus [1],10.6 nM mouse-1
same,ED50,Mus musculus [2],49.8 nM mouse-1
same,ED50,Mus musculus [3],0.9 nM mouse-1
same,ED50,Mus musculus [4],1 nM mouse-1
Oc1ccc2c3c1O[C@H]1c4oc5ccccc5c4C[C@@]4(O)[C@@H](C2)N(CC2CC2)CC[C@]314 [NALTRIBEN],ED50,Mus musculus [5],1 nM mouse-1
same,ED50,Mus musculus [6],5.8 nM mouse-1
same,ED50,Mus musculus [7],0.8 nM mouse-1
same,ED50,Mus musculus [8],9.1 nM mouse-1
NC(=NCCCCNC(=O)CNC(=O)CNC(=O)CCC(=O)NCC(=O)NCC(=O)Nc1cccc2c3c([nH]c12)[C@@H]1Oc2c(O)ccc4c2C12CCN(CC1CC1)C(C4)[C@]2(O)C3)Nc1ccc2[nH]c3c(c2c1)C[C@@]1(O)C2Cc4ccc(O)c5c4C1(CCN2CC1CC1)[C@H]3O5 (some centres undefined),ED50,Mus musculus [9],6.3 nM mouse-1
same,ED50,Mus musculus [10],1.7 nM mouse-1
same,Ki,Opioid receptor [11],1.4 nM
same,Ki,Opioid receptor [12],1.1 nM
same,ED50,Mus musculus [13],2.2 nM mouse-1
same,ED50,Mus musculus [14],0.6 nM mouse-1
N/C(=N\CCCNC(=O)CNC(=O)CCC(=O)NCC(=O)Nc1cccc2c3c([nH]c12)[C@@H]1Oc2c(O)ccc4c2[C@@]12CCN(CC1CC1)[C@H](C4)[C@]2(O)C3)Nc1ccc2[nH]c3c(c2c1)C[C@@]1(O)[C@H]2Cc4ccc(O)c5c4[C@@]1(CCN2CC1CC1)[C@H]3O5,ED50,Mus musculus [15],2 nM mouse-1
same,ED50,Mus musculus [16],1.9 nM mouse-1
same,Ki,Opioid receptor [17],6.3 nM
same,Ki,Opioid receptor [11],315 nM
same,ED50,Mus musculus [18],2.5 nM mouse-1
Oc1ccc2c3c1O[C@H]1c4[nH]c5c(c4C[C@@]4(O)[C@@H](C2)N(CC2CC2)CC[C@]314)C[C@@]1(O)[C@H]2Cc3ccc(O)c4c3[C@@]1(CCN2CC1CC1)[C@H]5O4 [NORBINALTORPHIMINE],ED50,Mus musculus [19],129.5 nM mouse-1
same,ED50,Mus musculus [20],1 nM mouse-1
same,ED50,Mus musculus [21],12.4 nM mouse-1
same,ED50,Mus musculus [22],5.3 nM mouse-1
N/C(=N\CCCNC(=O)CNC(=O)CNC(=O)CCC(=O)NCC(=O)NCC(=O)Nc1cccc2c3c([nH]c12)[C@@H]1Oc2c(O)ccc4c2C12CCN(CC1CC1)C(C4)[C@]2(O)C3)Nc1ccc2[nH]c3c(c2c1)C[C@@]1(O)C2Cc4ccc(O)c5c4C1(CCN2CC1CC1)[C@H]3O5 (some centres undefined),ED50,Mus musculus [23],50.4 nM mouse-1
same,Ki,Opioid receptor [17],63 nM
same,Ki,Opioid receptor [11],0.3 nM
same,ED50,Mus musculus [24],8 nM mouse-1
same,ED50,Mus musculus [25],1.2 nM mouse-1
same,ED50,Mus musculus [26],1.9 nM mouse-1
N/C(=N\CCCCCNC(=O)CNC(=O)CNC(=O)CCC(=O)NCC(=O)NCC(=O)Nc1cccc2c3c([nH]c12)[C@@H]1Oc2c(O)ccc4c2C12CCN(CC1CC1)C(C4)[C@]2(O)C3)Nc1ccc2[nH]c3c(c2c1)C[C@@]1(O)C2Cc4ccc(O)c5c4C1(CCN2CC1CC1)[C@H]3O5 (some centres undefined),Ki,Opioid receptor [27],4.8 nM
same,ED50,Mus musculus [9],2.2 nM mouse-1
same,ED50,Mus musculus [10],4.1 nM mouse-1
same,Ki,Opioid receptor [12],3.3 nM
same,ED50,Mus musculus [13],2.1 nM mouse-1
N/C(=N\CCCNC(=O)CNC(=O)CNC(=O)CCC(=O)NCC(=O)NCC(=O)Nc1ccc2[nH]c3c(c2c1)C[C@]1(O)C2Cc4ccc(O)c5c4C1(CCN2CC1CC1)[C@@H]3O5)Nc1ccc2[nH]c3c(c2c1)C[C@]1(O)C2Cc4ccc(O)c5c4C1(CCN2CC1CC1)[C@@H]3O5 (some centres undefined),ED50,Mus musculus [23],14.5 nM mouse-1
same,Ki,Opioid receptor [11],> 1000 nM
same,Ki,Opioid receptor [12],54.8 nM
same,ED50,Mus musculus [24],1.1 nM mouse-1
same,ED50,Mus musculus [25],1 nM mouse-1
O=C(CCC(=O)NCC(=O)NCC(=O)Nc1cccc2c3c([nH]c12)[C@@H]1Oc2c(O)ccc4c2C12CCN(CC1CC1)C(C4)[C@]2(O)C3)NCC(=O)NCC(=O)NCCCNC(=O)c1cccc2c3c([nH]c12)[C@@H]1Oc2c(O)ccc4c2C12CCN(CC1CC1)C(C4)[C@]2(O)C3 (some centres undefined),Ki,Opioid receptor [27],> 1000 nM
same,ED50,Mus musculus [1],1.1 nM mouse-1
same,ED50,Mus musculus [2],2.4 nM mouse-1
same,Ki,Opioid receptor [12],199 nM
same,ED50,Mus musculus [4],2.4 nM mouse-1
NC(=NCCNC(=O)CNC(=O)CNC(=O)CCC(=O)NCC(=O)NCC(=O)Nc1cccc2c3c([nH]c12)[C@@H]1Oc2c(O)ccc4c2C12CCN(CC1CC1)C(C4)[C@]2(O)C3)Nc1ccc2[nH]c3c(c2c1)C[C@@]1(O)C2Cc4ccc(O)c5c4C1(CCN2CC1CC1)[C@H]3O5 (some centres undefined),ED50,Mus musculus [9],3.4 nM mouse-1
same,ED50,Mus musculus [10],1.7 nM mouse-1
same,Ki,Opioid receptor [17],58.8 nM
same,Ki,Opioid receptor [11],0.5 nM
same,ED50,Mus musculus [13],1.1 nM mouse-1
